Reference: ChEMBL document CHEMBL1201862, “PubChem BioAssay data set” (2004)
Activity calls are given as the source filed them.

Key:
Troponin, cardiac muscle = Troponin, cardiac muscle (Homo sapiens, UniProt P19429+P45379+P63316); experiment: Fluorescence-based biochemical high throughput dose response assay for activators of the calcium sensitivity of cardiac Regulated Thin Filaments (RTF). [Related pubchem assays (depositor defined):AID493008, AID493018, AID504382, AID504383]; format: protein-complex assay
Cytochrome P450 1A2 = target: T1, Cytochrome P450 1A2 (Homo sapiens, UniProt P05177);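 note: PubChem cytochrome P450 panel assay, CYP1A2 panel member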
T1 sequence (P05177 whole entry): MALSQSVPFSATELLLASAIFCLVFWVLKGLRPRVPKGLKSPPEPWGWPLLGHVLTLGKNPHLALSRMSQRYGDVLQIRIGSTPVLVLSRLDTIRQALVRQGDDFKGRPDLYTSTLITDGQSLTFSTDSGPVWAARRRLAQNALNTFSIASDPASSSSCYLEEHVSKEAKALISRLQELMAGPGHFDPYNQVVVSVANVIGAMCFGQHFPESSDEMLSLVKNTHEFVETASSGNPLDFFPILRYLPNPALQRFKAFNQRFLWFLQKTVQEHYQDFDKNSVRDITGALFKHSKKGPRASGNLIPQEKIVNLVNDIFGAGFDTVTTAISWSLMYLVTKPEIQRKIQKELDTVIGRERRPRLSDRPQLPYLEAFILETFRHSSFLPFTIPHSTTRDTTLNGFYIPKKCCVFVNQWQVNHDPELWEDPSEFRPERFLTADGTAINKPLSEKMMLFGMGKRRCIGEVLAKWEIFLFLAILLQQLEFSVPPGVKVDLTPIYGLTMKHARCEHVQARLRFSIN

Cytochrome P450 2C9 = Cytochrome P450 2C9 (Homo sapiens, UniProt P11712)
[1] = target: T2, Calpain-2 catalytic subunit (Sus scrofa, UniProt P43367); experiment: m-calpain protease blockers, concentration series – biochemical, fluorogenic peptide substrate, dose response (AID 1420); format: functional
T2 sequence (P43367 whole entry): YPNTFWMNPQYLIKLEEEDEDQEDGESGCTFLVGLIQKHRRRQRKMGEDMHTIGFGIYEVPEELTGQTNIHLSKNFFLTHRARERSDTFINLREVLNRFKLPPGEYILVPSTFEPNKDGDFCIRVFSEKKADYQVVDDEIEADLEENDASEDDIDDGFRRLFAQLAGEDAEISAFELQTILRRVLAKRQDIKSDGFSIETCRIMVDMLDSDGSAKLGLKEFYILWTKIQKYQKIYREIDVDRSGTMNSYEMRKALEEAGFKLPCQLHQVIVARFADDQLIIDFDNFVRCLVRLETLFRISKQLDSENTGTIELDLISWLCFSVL

[2] = target: FAD-linked sulfhydryl oxidase ALR (Homo sapiens, UniProt P55789); experiment: ALR-catalysed DTT oxidation blockers – biochemical, H2O2 detection, luminescence, cherry-pick, dose response (AID 493248)
[3] = target: Dual specificity tyrosine-phosphorylation-regulated kinase 1A (Rattus norvegicus, UniProt Q63470); format: biochemical, Homo sapiens
Cytochrome P450 2C19 = Cytochrome P450 2C19 (Homo sapiens, UniProt P33261); experiment: Cytochrome panel assay with activity outcomes. Panel member name: p450-cyp2c19 Compounds with AC50 equal or less than 10 uM are considered active; format: functional; conditions: read-out: AC50
Cytochrome P450 3A4 [4] = target: T3, Cytochrome P450 3A4 (Homo sapiens, UniProt P08684)
[5] = target: Peroxisome proliferator-activated receptor gamma/Nuclear receptor coactivator 1 (Homo sapiens, UniProt P37231); experiment: (§1) TR-FRET dose response biochemical High Throughput Screening assay for agonists of the steroid receptor coactivator 1 (SRC-1) recruitment by the peroxisome proliferator-activated receptor gamma (PPAR gamma): non-selective agonists. [Related pubchem assays (depositor defined):AID1300, AID1808, AID504735, AID631]; format: protein assay
[6] = target: Peroxisome proliferator-activated receptor gamma/Nuclear receptor coactivator 3 (Homo sapiens, UniProt P37231); experiment: as §1, with “3 (SRC-3)” for “1 (SRC-1)”, “assays: 1301 (Confirmation screen.), 1048 (Primary screen.)]” for “assays (depositor defined):AID1300, AID1808, AID504735, AID631]”; format: functional
[7] = target: Peroxisome proliferator-activated receptor gamma/Nuclear receptor coactivator 2 (Homo sapiens, UniProt P37231); experiment: TR-FRET dose response biochemical High Throughput Screening assay for agonists of the steroid receptor coactivator 2 (SRC-2) recruitment by the peroxisome proliferator-activated receptor gamma (PPAR gamma): non-selective agonists. [Related pubchem assays: 1297, 1032 ]; format: functional
[8] = HEK-293T cell viability reduction – luminescence, B-cell screen hits, cytotoxicity control for BCR NF-kB inhibitor project, dose response (AID 489021); format: functional, cell-based;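 note: HEK-293T cells carrying an NF-kB luciferase reporter; cells exposed to compound for about 14 hours before viability readout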
HEK293 = experiment: EBV LMP1 TES2 canonical NF-kB signalling blockers – cell-based, HEK293, luciferase, cherry-pick, dose response (AID 588343); format: functional; conditions: Homo sapiens
[9] = NIH-3T3 fibroblast cytotoxicity, dose response, cytotoxicity control, cell-based, fluorescence, Alamar Blue, secondary assay (AID 2327); format: functional;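 note: NIH-3T3 mouse fibroblasts cultured with fluconazole at 8 µg/mL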
[10] = fluconazole-exposed Candida albicans growth modulators – fluorescence, retest, confirmation (AID 2467); format: functional, cell-based
[11] = Trypanosoma cruzi growth suppression in host cells – NIH3T3 host cells, beta-gal luminescence, confirmation (AID 2044); format: functional, cell-based;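 note: intracellular parasites grown in NIH/3T3 mouse fibroblasts as host cells; luminescent beta-galactosidase reporter signal from transgenic T. cruzi replicating inside host cells; inhibitors lower the luminescence signal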
[12] = target: T4, Serine/threonine-protein phosphatase (Candida dubliniensis (strain CD36 / CBS 7987 / NCPF 3949 / NRRLY-17841) (Yeast), UniProt B9W6M3); experiment: blockers of CaCl2-induced CDRE-lacZ signaling – S. cerevisiae, luminescence, secondary, dose response (AID 2388); format: functional, cell-based;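 note: yeast reporter cells carrying a calcineurin-responsive lacZ construct stimulated with calcium chloride; luminescent beta-galactosidase reporter signal in whole cells rather than isolated phosphatase activity; potency for inhibition where a drop in reporter signal means calcineurin blockade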
T4 sequence (B9W6M3 whole entry): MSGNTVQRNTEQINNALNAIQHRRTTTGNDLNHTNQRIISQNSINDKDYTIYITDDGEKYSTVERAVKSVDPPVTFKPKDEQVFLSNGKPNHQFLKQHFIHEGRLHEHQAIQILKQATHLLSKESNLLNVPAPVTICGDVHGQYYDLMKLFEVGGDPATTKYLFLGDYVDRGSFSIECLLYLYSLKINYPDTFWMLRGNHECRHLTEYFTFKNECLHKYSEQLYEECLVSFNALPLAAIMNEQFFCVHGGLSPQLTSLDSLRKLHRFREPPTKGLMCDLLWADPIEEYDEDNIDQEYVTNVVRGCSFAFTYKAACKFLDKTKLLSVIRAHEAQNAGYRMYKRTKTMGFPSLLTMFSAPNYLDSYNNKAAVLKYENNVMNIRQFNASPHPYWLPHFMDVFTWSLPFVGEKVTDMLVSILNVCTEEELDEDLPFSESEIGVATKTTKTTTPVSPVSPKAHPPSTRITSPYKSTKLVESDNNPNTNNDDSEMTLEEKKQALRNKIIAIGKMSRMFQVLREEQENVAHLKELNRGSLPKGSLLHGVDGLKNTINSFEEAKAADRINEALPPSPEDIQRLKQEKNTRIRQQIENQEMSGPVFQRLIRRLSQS

[13] = NIH3T3 cell viability loss – ATP luminescence, mouse fibroblasts, counter-screen, dose response (AID 2010); format: functional, cell-based;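 note: cells exposed to compound for about 90 hours before reading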
INS1 = experiment: INS-1E survival protection against cytokine death – cell-based, luminescence, retest, dose response (AID 449756); format: functional; conditions: Rattus norvegicus;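 note: cell death triggered by IL-1 beta plus TNF-alpha plus IFN-gamma mixture; protective hits raise ATP signal compared with cytokine alone wells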
[14] = target: ATP-dependent molecular chaperone HSP82 (Candida albicans (strain WO-1) (Yeast), UniProt C4YTQ8); experiment: steroid-induced GRE reporter decrease in yeast – S. cerevisiae, luminescence, Hsp90 inhibitor project, dose response (AID 2400); format: functional, cell-based;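 note: beta-galactosidase luminescence from glucocorticoid response element reporter as proxy for Hsp90 function; inhibitor potency where signal loss means Hsp90 inhibition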
Protein Wnt-3a = Protein Wnt-3a (Mus musculus, UniProt P27467); experiment: antagonism of Wnt3a pathway luciferase reporter – Wnt-LIGHT cells, luminescence, selectivity assay for Gli-SUFU antagonist project, dose response (AID 651570); format: functional; conditions: read-out: IC50_Mean;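 note: Wnt-LIGHT reporter cells stimulated with conditioned medium from Wnt3a-producing cells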
[15] = target: T5, COUP transcription factor 2 (Homo sapiens, UniProt P24468); experiment: Luminescence-based cell-based high throughput dose response assay to identify inhibitors of COUP-TFII (NR2F2).; format: functional;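 note: HEK293 cells transiently cotransfected with COUP-TFII expression vector and reporter; luciferase reporter luminescence driven by COUP-TFII from the pX2-168 reporter plasmid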
T5 sequence (P24468 whole entry): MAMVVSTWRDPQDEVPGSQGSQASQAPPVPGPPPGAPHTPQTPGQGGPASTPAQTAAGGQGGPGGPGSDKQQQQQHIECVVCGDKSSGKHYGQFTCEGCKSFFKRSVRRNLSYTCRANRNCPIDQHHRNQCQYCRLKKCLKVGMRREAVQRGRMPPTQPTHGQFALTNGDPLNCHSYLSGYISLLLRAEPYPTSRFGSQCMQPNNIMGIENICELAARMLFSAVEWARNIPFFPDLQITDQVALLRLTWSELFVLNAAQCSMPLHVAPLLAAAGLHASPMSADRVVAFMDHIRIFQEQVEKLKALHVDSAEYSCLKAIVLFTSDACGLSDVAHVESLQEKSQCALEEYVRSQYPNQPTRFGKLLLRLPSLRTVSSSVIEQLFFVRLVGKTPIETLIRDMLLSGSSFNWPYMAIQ

[16] = target: T6, Microphthalmia-associated transcription factor (Homo sapiens, UniProt O75030); experiment: reducers of TRPM1 reporter luminescence, concentration series – cell-based, SK-MEL-5, cherry-picked, set 3, MITF inhibitor project, dose response (AID 493073); format: functional;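 note: SK-MEL-5 melanoma cells with luciferase driven by the MITF target TRPM1 promoter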
T6 sequence (O75030 whole entry): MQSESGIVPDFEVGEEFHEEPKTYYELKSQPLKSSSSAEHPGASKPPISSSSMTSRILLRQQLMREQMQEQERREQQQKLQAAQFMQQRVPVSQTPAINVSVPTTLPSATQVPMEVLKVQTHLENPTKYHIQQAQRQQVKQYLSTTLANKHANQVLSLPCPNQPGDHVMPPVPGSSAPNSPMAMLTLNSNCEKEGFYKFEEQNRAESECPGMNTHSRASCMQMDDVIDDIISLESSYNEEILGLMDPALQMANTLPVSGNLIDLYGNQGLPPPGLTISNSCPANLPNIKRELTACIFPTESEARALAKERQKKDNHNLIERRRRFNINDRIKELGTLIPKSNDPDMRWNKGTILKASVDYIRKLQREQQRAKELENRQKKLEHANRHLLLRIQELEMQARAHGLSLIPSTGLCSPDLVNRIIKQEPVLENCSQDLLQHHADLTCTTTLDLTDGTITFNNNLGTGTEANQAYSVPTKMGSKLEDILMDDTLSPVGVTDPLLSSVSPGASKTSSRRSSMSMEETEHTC

Paired box protein Pax-8 = Paired box protein Pax-8 (Homo sapiens, UniProt Q06710); experiment: PAX8 transcriptional activity inhibition in RMG-I – RMG-I cells, luciferase, cherry-pick, dose response (AID 687027); format: functional, cell-based;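 note: luciferase reporter driven by Pax8 target thyroperoxidase promoter measured by SteadyGlo luminescence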
[17] = viability loss in HepG2 hepatoma cells – cell-based, ATP luminescence, cherry-pick, activator set 2, cytotoxicity control, dose response (AID 1053143); format: functional
Cytochrome P450 3A4 [18] = target: T3, Cytochrome P450 3A4; conditions: Potency

Sequence of ATP-dependent molecular chaperone HSP82 (C4YTQ8 whole entry): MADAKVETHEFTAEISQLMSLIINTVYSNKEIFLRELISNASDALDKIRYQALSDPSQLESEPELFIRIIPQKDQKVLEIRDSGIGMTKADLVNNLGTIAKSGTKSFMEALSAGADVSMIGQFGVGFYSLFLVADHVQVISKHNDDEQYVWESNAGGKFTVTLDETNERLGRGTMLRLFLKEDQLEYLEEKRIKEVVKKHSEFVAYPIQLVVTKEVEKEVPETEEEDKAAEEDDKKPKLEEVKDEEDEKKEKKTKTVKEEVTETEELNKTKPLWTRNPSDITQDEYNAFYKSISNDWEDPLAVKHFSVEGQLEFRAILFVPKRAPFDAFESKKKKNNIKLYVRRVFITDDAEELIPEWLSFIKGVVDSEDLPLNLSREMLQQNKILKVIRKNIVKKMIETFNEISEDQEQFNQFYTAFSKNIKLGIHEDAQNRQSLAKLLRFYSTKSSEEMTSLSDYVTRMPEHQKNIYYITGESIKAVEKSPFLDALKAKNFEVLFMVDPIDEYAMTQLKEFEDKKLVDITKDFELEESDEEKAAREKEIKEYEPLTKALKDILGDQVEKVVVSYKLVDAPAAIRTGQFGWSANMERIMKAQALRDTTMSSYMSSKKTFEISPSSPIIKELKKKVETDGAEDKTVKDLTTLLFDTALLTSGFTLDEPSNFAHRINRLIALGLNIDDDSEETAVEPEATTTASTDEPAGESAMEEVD
Sequence of Cytochrome P450 2C9 (P11712 whole entry): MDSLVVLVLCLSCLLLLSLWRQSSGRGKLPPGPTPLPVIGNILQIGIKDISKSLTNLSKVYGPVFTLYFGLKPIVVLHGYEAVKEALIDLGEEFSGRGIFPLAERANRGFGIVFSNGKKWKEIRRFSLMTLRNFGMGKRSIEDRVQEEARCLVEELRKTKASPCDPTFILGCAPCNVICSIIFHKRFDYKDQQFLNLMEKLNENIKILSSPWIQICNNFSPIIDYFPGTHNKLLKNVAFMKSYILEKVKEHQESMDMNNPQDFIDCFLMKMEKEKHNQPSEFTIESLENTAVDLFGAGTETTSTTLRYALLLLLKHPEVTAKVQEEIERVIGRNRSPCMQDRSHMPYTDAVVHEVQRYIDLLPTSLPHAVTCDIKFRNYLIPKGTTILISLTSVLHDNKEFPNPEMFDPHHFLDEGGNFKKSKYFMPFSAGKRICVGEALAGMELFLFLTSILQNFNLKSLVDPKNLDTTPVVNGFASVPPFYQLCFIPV
T3 sequence (P08684 whole entry): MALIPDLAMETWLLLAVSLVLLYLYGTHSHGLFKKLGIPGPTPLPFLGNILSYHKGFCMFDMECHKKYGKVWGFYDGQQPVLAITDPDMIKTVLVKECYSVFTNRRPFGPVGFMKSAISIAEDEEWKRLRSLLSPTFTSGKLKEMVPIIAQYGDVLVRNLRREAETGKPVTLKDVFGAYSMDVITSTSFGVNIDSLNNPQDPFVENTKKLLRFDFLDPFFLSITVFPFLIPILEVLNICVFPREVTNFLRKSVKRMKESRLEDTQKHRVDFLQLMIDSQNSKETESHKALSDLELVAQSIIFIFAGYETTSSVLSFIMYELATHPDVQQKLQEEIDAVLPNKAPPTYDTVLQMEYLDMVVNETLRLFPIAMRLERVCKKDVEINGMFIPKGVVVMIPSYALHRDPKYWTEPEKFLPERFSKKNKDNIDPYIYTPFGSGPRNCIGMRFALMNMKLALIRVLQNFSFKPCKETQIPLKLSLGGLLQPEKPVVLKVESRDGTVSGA
Sequence of Peroxisome proliferator-activated receptor gamma/Nuclear receptor coactivator 1 (P37231 whole entry): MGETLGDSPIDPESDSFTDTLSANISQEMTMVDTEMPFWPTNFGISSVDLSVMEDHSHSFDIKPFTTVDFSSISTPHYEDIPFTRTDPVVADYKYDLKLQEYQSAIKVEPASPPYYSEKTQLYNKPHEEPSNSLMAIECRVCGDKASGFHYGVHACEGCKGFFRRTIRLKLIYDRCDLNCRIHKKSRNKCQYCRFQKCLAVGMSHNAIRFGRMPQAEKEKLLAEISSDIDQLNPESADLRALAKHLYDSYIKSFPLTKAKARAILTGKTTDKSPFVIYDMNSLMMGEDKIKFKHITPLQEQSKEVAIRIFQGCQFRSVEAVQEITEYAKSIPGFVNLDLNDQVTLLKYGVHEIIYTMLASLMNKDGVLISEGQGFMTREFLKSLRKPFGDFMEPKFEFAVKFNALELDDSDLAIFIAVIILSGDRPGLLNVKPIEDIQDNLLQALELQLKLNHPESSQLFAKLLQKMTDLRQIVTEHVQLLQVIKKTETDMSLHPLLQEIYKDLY
Sequence of Peroxisome proliferator-activated receptor gamma/Nuclear receptor coactivator 1 (Q15788 whole entry, further chain): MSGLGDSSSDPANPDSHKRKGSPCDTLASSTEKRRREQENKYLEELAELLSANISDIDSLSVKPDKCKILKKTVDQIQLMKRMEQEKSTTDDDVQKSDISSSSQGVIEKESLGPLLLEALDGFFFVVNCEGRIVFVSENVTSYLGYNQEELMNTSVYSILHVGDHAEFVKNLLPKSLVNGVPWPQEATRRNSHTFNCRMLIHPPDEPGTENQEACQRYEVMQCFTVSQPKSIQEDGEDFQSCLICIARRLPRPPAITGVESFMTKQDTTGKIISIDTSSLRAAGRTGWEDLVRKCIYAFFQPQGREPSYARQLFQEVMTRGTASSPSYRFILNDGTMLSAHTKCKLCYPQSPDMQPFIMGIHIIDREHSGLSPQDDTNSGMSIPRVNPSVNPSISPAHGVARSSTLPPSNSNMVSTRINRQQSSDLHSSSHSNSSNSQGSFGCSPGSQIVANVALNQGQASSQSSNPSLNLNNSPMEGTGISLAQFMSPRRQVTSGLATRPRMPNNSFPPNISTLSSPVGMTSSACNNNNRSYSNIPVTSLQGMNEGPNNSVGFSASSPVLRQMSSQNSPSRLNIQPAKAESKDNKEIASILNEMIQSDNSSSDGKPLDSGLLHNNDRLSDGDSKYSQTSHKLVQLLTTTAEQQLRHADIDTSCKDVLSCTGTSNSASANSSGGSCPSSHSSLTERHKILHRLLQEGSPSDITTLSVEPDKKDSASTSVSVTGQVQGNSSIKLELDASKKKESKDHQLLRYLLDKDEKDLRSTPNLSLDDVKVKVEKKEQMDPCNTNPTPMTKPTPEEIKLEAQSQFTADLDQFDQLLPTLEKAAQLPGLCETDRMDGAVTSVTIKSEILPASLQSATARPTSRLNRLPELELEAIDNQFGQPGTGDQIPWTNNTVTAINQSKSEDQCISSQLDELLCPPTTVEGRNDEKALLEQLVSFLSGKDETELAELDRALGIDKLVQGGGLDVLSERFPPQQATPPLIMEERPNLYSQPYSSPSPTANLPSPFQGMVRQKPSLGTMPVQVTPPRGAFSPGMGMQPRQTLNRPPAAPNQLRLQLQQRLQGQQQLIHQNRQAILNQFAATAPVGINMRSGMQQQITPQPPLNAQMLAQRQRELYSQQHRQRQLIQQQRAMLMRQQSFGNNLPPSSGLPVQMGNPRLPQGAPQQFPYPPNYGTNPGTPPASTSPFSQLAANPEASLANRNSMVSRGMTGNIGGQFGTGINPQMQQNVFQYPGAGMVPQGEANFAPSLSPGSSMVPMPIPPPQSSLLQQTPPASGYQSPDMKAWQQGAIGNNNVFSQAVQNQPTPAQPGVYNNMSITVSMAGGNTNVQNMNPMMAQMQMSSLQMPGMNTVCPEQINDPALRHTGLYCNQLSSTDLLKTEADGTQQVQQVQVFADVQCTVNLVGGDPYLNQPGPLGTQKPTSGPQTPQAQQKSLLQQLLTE
Sequence of Cytochrome P450 2C19 (P33261 whole entry): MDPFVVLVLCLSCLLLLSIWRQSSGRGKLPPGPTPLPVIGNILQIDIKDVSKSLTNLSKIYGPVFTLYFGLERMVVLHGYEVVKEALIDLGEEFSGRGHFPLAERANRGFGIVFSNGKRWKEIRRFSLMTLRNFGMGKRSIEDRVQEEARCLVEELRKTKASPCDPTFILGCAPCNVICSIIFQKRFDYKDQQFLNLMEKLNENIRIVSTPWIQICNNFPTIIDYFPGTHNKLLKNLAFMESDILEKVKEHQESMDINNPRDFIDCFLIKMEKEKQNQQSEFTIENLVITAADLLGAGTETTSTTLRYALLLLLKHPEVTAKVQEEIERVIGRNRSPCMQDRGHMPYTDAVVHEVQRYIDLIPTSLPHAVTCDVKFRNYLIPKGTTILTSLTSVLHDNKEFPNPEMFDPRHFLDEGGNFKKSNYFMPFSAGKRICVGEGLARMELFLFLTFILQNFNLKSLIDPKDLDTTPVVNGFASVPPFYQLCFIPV
Sequence of FAD-linked sulfhydryl oxidase ALR (P55789 whole entry): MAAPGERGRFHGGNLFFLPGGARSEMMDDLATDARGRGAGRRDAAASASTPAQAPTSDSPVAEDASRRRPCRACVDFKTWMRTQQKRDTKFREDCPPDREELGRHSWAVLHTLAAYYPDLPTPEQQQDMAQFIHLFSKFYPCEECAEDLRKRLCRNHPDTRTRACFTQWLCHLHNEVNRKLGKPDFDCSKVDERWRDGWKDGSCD
Sequence of Paired box protein Pax-8 (Q06710 whole entry): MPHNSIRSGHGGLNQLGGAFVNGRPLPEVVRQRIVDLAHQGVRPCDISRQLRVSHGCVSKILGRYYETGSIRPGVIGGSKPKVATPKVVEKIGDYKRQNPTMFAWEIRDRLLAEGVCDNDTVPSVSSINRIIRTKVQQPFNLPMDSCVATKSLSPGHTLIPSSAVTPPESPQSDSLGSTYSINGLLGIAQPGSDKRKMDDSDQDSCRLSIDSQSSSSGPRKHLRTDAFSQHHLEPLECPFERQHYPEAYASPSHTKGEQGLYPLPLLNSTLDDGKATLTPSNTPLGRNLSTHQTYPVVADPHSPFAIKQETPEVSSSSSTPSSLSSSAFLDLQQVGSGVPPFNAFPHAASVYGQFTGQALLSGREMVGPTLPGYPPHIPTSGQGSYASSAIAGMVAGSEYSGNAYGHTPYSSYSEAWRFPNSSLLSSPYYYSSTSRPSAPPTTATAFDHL

O=C(CSc1nc2cc(Br)c[nH]c-2n1)c1cccc([N+](=O)[O-])c1
EC50 (Troponin, cardiac muscle): > 71.5 µM (inactive)

CCCN(CCC)CCc1c[nH]c2ccc(C(N)=O)cc12
AC50 (Cytochrome P450 1A2): 15.8 µM (inconclusive) | AC50 (Cytochrome P450 2C9): inconclusive

COc1cc(/C=C2/SC(=O)NC2=O)ccc1Oc1ccc([N+](=O)[O-])cc1[N+](=O)[O-]
IC50 [1]: 7.36 µM (not active) | AC50 [2]: 0.156 µM (active) | AC50 [3]: 0.992 µM (active)

CCO/C(=C/c1sc2ccc(OC)cc2[n+]1CCCS(=O)(=O)[O-])CC
AC50 [3]: 9.02 µM (active)

CN(CCCNC(=O)C1CCN(S(=O)(=O)c2cccc3nsnc23)CC1)Cc1ccccc1
AC50 (Cytochrome P450 2C19): 39.8 µM (inconclusive) | AC50 (Cytochrome P450 3A4 [4]): 3.16 µM (inconclusive) | AC50 (Cytochrome P450 2C9): inconclusive

CCn1c(=O)cc(SCC(=O)N2CCN(C)CC2)c2ccccc21
EC50 [5]: > 79.4 µM (inactive) | EC50 [6]: > 79.4 µM (not active) | EC50 [7]: > 79.4 µM (not active) | IC50 [8]: > 80 µM (inactive)

Cc1ccccc1C(=O)c1c[nH]c(C(=O)NCc2ccco2)c1
AC50 (HEK293): 11.2 µM (active)

C[n+]1c2n(c3ccccc31)N=C(c1ccc(-c3ccccc3)cc1)CS2
EC50 [9]: > 160 µM (inactive) | EC50 [10]: 0.452 µM (active) | EC50 [11]: 0.376 µM (active) | EC50 [12]: > 180 µM (inactive) | EC50 [13]: 9.85 µM (active) | AC50 (INS1): 1.32 µM (active) | EC50 [14]: > 160 µM (inactive) | IC50 (Protein Wnt-3a): 0.736 µM (active) | IC50 [15]: 5.03 µM (active)

CCOC(=O)c1c(-c2ccccc2Cl)cn2ccccc12
EC50 [9]: > 160 µM (inactive) | EC50 [10]: 3.75 µM (active) | EC50 [12]: > 180 µM (inactive) | EC50 [14]: 17.4 µM (active)

COc1cc(/C=C/C(=O)N2CCC=CC2=O)cc(OC)c1OC [PIPLARTINE]
AC50 [16]: 7.4 µM (active) | AC50 (Paired box protein Pax-8): 2.69 µM (active) | AC50 [17]: 17.4 µM (active) | AC50 (Cytochrome P450 3A4 [18]): 0.0501 µM (inconclusive)
